This note sets out measurements from patent US7897765B2, “Therapeutic compounds and uses thereof” (Elixir Pharmaceuticals, Inc., priority 2003, dated 2011).

The structures appear in SMILES notation.

The target in this assay is GHS-R (Homo sapiens, UniProt Q92847). The assay is described as follows: cell based assay of GHS-R antagonist/agonist activity. Set-up: key: A refers to a compound having antagonist activity with Ki<100 nM in a cell based assay; B refers to a compound having agonist activity with EC50<100 nM in a cell based assay; C refers to a compound having antagonist activity of Ki>100 nM and <1500 nM in a cell based assay; D refers to a compound having antagonist activity with Ki, <100 nM and agonist activity with EC50<100 nM in a cell-based assay; E refers to other exemplary compounds. The following applies: GHS-R antagonist Ki and/or agonist EC50 class. On the procedure: Cell-Based Activity Assays. For example, the ability of the compound to modulate accumulation of a second messenger signaling component downstream of GHS-R can be evaluated. For example, inositol phosphates (IP), as a result of Gq signaling in a mammalian cell, e.g., a Cos-7 cells. Other tissue culture cells, Xenopus oocytes, and primary cells can also be used.
Phosphatidylinositol turnover assay. One day after transfection COS-7 cells are incubated for 24 hours with 5 μCi of [^3H]-myo-inositol in 1 ml medium supplemented with 10% fetal calf serum, 2 mM glutamine and 0.01 mg/ml gentamicin per well. Cells are then washed twice in buffer, 20 mM HEPES, pH 7.4, supplemented with 140 mM NaCl, 5 mM KCl, 1 mM MgSO4, 1 mM CaCl2, mM glucose, 0.05% (w/v) bovine serum; and incubated in 0.5 ml buffer supplemented with 10 mM LiCl at 37° C. for 30 min. For some assays, it is also useful to incubate the cells with adenosine deaminase ADA (200 U/mg, Boehringer Mannheim, Germany) for 30 min in a concentration of 1 U/ml.
After incubation with the compound of interest for 45 min at 37° C., cells are extracted with 10% ice-cold perchloric acid and placed on ice for 30 min. The resulting supernatants are neutralized with KOH in HEPES buffer, and [^3H]-inositol phosphate is purified on Bio-Rad AG 1-X8 anion exchange resin as described. Assays can be run in duplicate, triplicate, etc.
Other second messenger assays. Another second messenger that can be evaluated is Ca^2+. Ca^2+ mobilization can be evaluated using a calcium sensitive detector, such as aequorin protein or a dye, e.g., FURA-2. In an exemplary assay, calcium mobilization is evaluated in a recombinant cell that expresses GHS-R and aequorin.
Gene expression assay. HEK293 cells (30 000 cells/well) seeded in 96-well plates are transiently transfected with a mixture of pFA2-CREB and pFR-Luc reporter plasmid (PathDetect™ CREB trans-Reporting System, Stratagene) and nucleic acid encoding GHS. One day after transfection, cells are treated with the compound of interest in an assay volume of 100 μl medium for 5 hrs. After treatment, cells are cultured in low serum (2.5%). After the incubation period, the assay is ended by washing the cells twice with PBS and adding 100 μl luciferase assay reagent (LucLite™, Packard Bioscience). Luminescence is measured (e.g., as relative light units (RLU)) using in a luminometer such as the TopCounter™ (Packard Bioscience) for 5 sec.
IC50 and EC50 values can be determined by nonlinear regression, e.g., using the Prism 3.0 software (GraphPad Software, San Diego).

Sequence of GHS-R (Q92847 whole entry, species assumed): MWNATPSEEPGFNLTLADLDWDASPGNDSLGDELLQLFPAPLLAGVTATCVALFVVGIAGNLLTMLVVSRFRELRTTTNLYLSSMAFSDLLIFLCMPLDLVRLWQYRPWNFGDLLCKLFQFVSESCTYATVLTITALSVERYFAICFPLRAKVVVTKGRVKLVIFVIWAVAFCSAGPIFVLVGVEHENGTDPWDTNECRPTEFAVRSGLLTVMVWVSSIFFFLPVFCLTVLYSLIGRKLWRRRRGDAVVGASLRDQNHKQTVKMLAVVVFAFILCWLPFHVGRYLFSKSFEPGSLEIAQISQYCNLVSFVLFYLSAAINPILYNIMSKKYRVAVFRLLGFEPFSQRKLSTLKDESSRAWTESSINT

On to `CC(C)N(C)CCS(=O)(=O)N[C@H](COCc1ccccc1)C(=O)N1CCC2(CC1)CN(S(C)(=O)=O)c1ccccc12` [Compound 21], for which the Activity result was “C (C refers to a compound having antagonist activity of Ki>100 nM and <1500 nM in a cell based assay)”.

With `CC(C)(C)OC(=O)N[C@H](COCc1ccccc1)C(=O)N1CCC2(CC1)CN(S(=O)(=O)Cc1ccccc1)c1ccccc12` [Compound 67], the Activity entry is given as “E”.

As to `C[C@@H](N)C(=O)N[C@H](COCc1ccccc1)C(=O)N1CCC2(CC1)CN(S(C)(=O)=O)c1ccccc12` [Compound 79], the Activity entry was “E”.

Turning to `CN(C)C[C@H]1CCC[C@@H](CNC(=O)[C@@H](Cc2c[nH]c3ccccc23)NC(=O)N2CCC3(C=Cc4ccccc43)CC2)C1` [Compound 5], the Activity entry is reported as “A (A refers to a compound having antagonist activity with Ki<100 nM in a cell based assay)”.

`CN(C)CC(=O)N[C@H](COCc1ccccc1)C(=O)N1CCC2(C=Cc3ccccc32)CC1` [Compound 29]: the Activity entry was “C (C refers to a compound having antagonist activity of Ki>100 nM and <1500 nM in a cell based assay)”.

As for `CN1CCCC[C@@H]1C(=O)N[C@H](COCc1ccccc1)C(=O)N1CCC2(CC1)CN(S(C)(=O)=O)c1ccccc12.Cl` [Compound 133], the Activity result is reported as “B (B refers to a compound having agonist activity with EC50<100 nM in a cell based assay)”.

As for `CN1CCC(S(=O)(=O)N[C@H](COCc2ccccc2)C(=O)N2CCC3(CC2)CN(S(C)(=O)=O)c2ccccc23)CC1` [Compound 143], the Activity entry is reported as “A (A refers to a compound having antagonist activity with Ki<100 nM in a cell based assay)”.

On to `CCN(C)CCS(=O)(=O)N[C@H](COCc1ccccc1)C(=O)N1CCC2(CC1)CN(S(C)(=O)=O)c1ccccc12` [Compound 35], for which the Activity entry is “C (C refers to a compound having antagonist activity of Ki>100 nM and <1500 nM in a cell based assay)”.

Regarding `CS(=O)(=O)N1CC2(CCN(C(=O)[C@@H](COCc3ccccc3)NC(=O)c3ccccn3)CC2)c2ccccc21` [Compound 53], the Activity result was “E”.

With `CCN(CC)CCCS(=O)(=O)N[C@H](COCc1ccccc1)C(=O)N1CCC2(CC1)CN(S(C)(=O)=O)c1ccccc12` [Compound 155], the Activity entry is listed as “A (A refers to a compound having antagonist activity with Ki<100 nM in a cell based assay)”.

As to `CN1CC=C(C(=O)N[C@H](COCc2ccccc2)C(=O)N2CCC3(CC2)CN(S(C)(=O)=O)c2ccccc23)CC1` [Compound 99], the Activity entry is “E”.

On to `CN1CC=C[C@H]1C(=O)N[C@H](COCc1ccccc1)C(=O)N1CCC2(CC1)CN(S(C)(=O)=O)c1ccccc12` [Compound 11], for which the Activity result is reported as “A (A refers to a compound having antagonist activity with Ki<100 nM in a cell based assay)”.

With `CN1CCCC(C(=O)N[C@H](COCc2ccccc2)C(=O)N2CCC3(CC2)CN(S(C)(=O)=O)c2ccccc23)C1` (stereo partly shown) [Compound 13], the Activity result is recorded as “A (A refers to a compound having antagonist activity with Ki<100 nM in a cell based assay)”.

Regarding `CN(C)CC(=O)N1CC2(CCN(C(=O)[C@@H](COCc3ccccc3)NC(=O)OC(C)(C)C)CC2)c2ccccc21` [Compound 63], the Activity result is “E”.

Consider `CS(=O)(=O)N1CC2(CCN(C(=O)[C@@H](COCc3ccccc3)NC(=O)CN3CCC3)CC2)c2ccccc21` [Compound 39], for which the Activity entry was “C (C refers to a compound having antagonist activity of Ki>100 nM and <1500 nM in a cell based assay)”.

As for `CC(C)(C)OC(=O)N[C@H](COCc1ccccc1)C(=O)N1CCC2(C=Cc3ccccc32)CC1` [Compound 30], the Activity result was “C (C refers to a compound having antagonist activity of Ki>100 nM and <1500 nM in a cell based assay)”.

For the compound `CN(C)CC(=O)N[C@H](COCc1ccccc1)C(=O)N1CCC2(CC1)CN(S(=O)(=O)CC(F)(F)F)c1ccccc12` [Compound 47], the Activity entry is “C (C refers to a compound having antagonist activity of Ki>100 nM and <1500 nM in a cell based assay)”.

For the compound `CS(=O)(=O)N1CC2(CCN(C(=O)[C@@H](COCc3ccccc3)NC(=O)CO)CC2)c2ccccc21` [Compound 54], the Activity result is reported as “E”.

Turning to `CS(=O)(=O)N1CC2(CCN(C(=O)[C@@H](COCc3ccccc3)NS(=O)(=O)CCCNC3CC3)CC2)c2ccccc21` [Compound 157], the Activity result is listed as “E”.

`CN1CCC(NC(=O)N2C[C@H](OCc3ccccc3)CC2C(=O)N2CCC3(CC2)CN(S(C)(=O)=O)c2ccccc23)CC1` (stereo partly shown) [Compound 139]: the Activity entry is reported as “E”.

With `CS(=O)(=O)N1CC2(CCN(C(=O)[C@@H](COCc3ccccc3)NC(=O)NCCCO)CC2)c2ccccc21` [Compound 95], the Activity entry was “E”.

Regarding `CN(C)C(C)(C)C(=O)N[C@H](COCc1ccccc1)C(=O)N1CCC2(CC1)CN(S(C)(=O)=O)c1ccccc12` [Compound 131], the Activity entry is “B (B refers to a compound having agonist activity with EC50<100 nM in a cell based assay)”.

Regarding `CC(C)(C)OC(=O)N[C@H](COCc1ccccc1)C(=O)N1CCC2(CC1)CN(S(=O)(=O)CC(F)(F)F)c1ccccc12` [Compound 64], the Activity entry was “E”.

As for `CS(=O)(=O)N1CC2(CCN(C(=O)[C@@H](COCc3ccccc3)NC(=O)C3CCCNC3)CC2)c2ccccc21` (stereo partly shown) [Compound 4], the Activity result is “D (D refers to a compound having antagonist activity with Ki, <100 nM and agonist activity with EC50<100 nM in a cell-based assay)”.

Take `CS(=O)(=O)N1CC2(CCN(C(=O)[C@@H](COCc3ccccc3)NS(=O)(=O)CCCN3CCOCC3)CC2)c2ccccc21` [Compound 149]: the Activity result is given as “E”.

For the compound `CS(=O)(=O)N1CC2(CCN(C(=O)[C@@H](COCc3ccccc3)NC(=O)C3CCNCC3)CC2)c2ccccc21` [Compound 128], the Activity result is “B (B refers to a compound having agonist activity with EC50<100 nM in a cell based assay)”.

Take `CCN(C)CCC(=O)N[C@H](COCc1ccccc1)C(=O)N1CCC2(CC1)CN(S(C)(=O)=O)c1ccccc12` [Compound 15]: the Activity entry is “C (C refers to a compound having antagonist activity of Ki>100 nM and <1500 nM in a cell based assay)”.

As to `CS(=O)(=O)N1CC2(CCN(C(=O)[C@@H](COCc3ccccc3)NC(=O)NCCO)CC2)c2ccccc21` [Compound 41], the Activity result is “C (C refers to a compound having antagonist activity of Ki>100 nM and <1500 nM in a cell based assay)”.

In the case of `Cc1ccc(CSC[C@H](NC(=O)C2CCN(C)CC2)C(=O)N2CCC3(CC2)CN(S(C)(=O)=O)c2ccccc23)cc1` [Compound 140], the Activity entry is “E”.

Take `CC(C)(C)NC(=O)N[C@H](COCc1ccccc1)C(=O)N1CCC2(CC1)CN(S(C)(=O)=O)c1ccccc12` [Compound 17]: the Activity entry is “C (C refers to a compound having antagonist activity of Ki>100 nM and <1500 nM in a cell based assay)”.

With `CS(=O)(=O)N1CC2(CCN(C(=O)[C@@H](COCc3ccccc3)NS(=O)(=O)CCCCl)CC2)c2ccccc21` [Compound 153], the Activity result is “A (A refers to a compound having antagonist activity with Ki<100 nM in a cell based assay)”.

Take `CN1CCC(C(=O)N[C@H](Cc2c[nH]c3ccccc23)C(=O)N2CCC3(CC2)CN(S(C)(=O)=O)c2ccccc23)CC1` [Compound 135]: the Activity entry is recorded as “E”.

For `CC(C)(C)OC(=O)N1CCC=C(C(=O)N[C@H](COCc2ccccc2)C(=O)N2CCC3(CC2)CN(S(C)(=O)=O)c2ccccc23)C1` [Compound 106], the Activity entry is listed as “E”.

For the compound `CS(=O)(=O)N1CC2(CCN(C(=O)[C@@H](COCc3ccccc3)NC(=O)C3(N)CCCC3)CC2)c2ccccc21` [Compound 134], the Activity result is “B (B refers to a compound having agonist activity with EC50<100 nM in a cell based assay)”.

Regarding `CN(C)C1(C(=O)N[C@H](COCc2ccccc2)C(=O)N2CCC3(CC2)CN(S(C)(=O)=O)c2ccccc23)CCCCC1` [Compound 118], the Activity entry is “E”.

Consider `CC(C)(C)OC(=O)N[C@H](COCc1ccccc1)C(=O)N1CCC2(CC1)CN(C(=O)CO)c1ccccc12` [Compound 61], for which the Activity entry is given as “E”.

In the case of `CN[C@@H](C)C(=O)N[C@H](COCc1ccccc1)C(=O)N1CCC2(CC1)CN(S(C)(=O)=O)c1ccccc12` [Compound 129], the Activity result is given as “B (B refers to a compound having agonist activity with EC50<100 nM in a cell based assay)”.
